Target: c-Myc template DNA (c-myc quadruplex)
Experiment: Quadruplex binding / stop assay (Taq polymerase arrest, capillary electrophoresis)
Settings: read-out: S DATA; Table 1D, stop assay data

Row | Compound | IC50 [µM]
1 | CN(C)CCCCNc1ccc2c(=O)c(C(=O)NCCC3CCCN3C)cn3c2c1Oc1cc2ccccc2cc1-3 (stereo not drawn) [compound 1541] | 1.75
2 | CN1CCCC1CCNC(=O)c1cn2c3c(c(N4CCC(NC(=O)OC(C)(C)C)C4)ccc3c1=O)Oc1cc3ccccc3cc1-2 (stereo not drawn) [compound 1535] | 0.75
3 | CN(C)CCCCNC(=O)c1cn2c3c(c(N4CCC(NC(=O)OC(C)(C)C)C4)ccc3c1=O)Oc1cc3ccccc3cc1-2 (stereo not drawn) [compound 1538] | 1
4 | O=C(NCCC1CCCN1)c1cn2c3c(c(NCCN4CCCC4)ccc3c1=O)Oc1cc3ccccc3cc1-2 (stereo not drawn) [compound 1516] | 1.75
5 | CN1CCN(CCCNc2c(F)cc3c(=O)c(C(=O)NCCCN4CCOCC4)cn4c3c2Oc2ccccc2-4)CC1 [compound 1572] | > 15
6 | O=C(c1cn2c3c(c(NCCN4CCCC4)c(F)cc3c1=O)Oc1ccccc1-2)N1CCC(N2CCCC2)CC1 [compound 1601] | > 15
7 | CN1CCN(C(=O)c2cn3c4c(c(NCCN5CCCC5)c(F)cc4c2=O)Oc2ccccc2-3)CC1 [compound 1602] | > 15

Second part, the compound after the results:

Row | IC50 [µM] | Compound
8 | > 15 | CC(C)N1CCN(c2c(F)cc3c(=O)c(C(=O)NCCN4CCOCC4)cn4c3c2Oc2cc(Cl)ccc2-4)CC1 [compound 1805]
9 | 1.75 | CN1CCCC1CCNC(=O)c1cn2c3c(c(-n4cncc4-c4cnccn4)c(F)cc3c1=O)Oc1cc3ccccc3cc1-2 (stereo not drawn) [compound 1761]
10 | 1.8 | CN1CCCC1CCNC(=O)c1cn2c3c(c(NCCCN4CCCC4=O)c(F)cc3c1=O)Oc1cc3ccccc3cc1-2 (stereo not drawn) [compound 1660]
11 | 5 | CN1CCCC1CCN(CC[C@@H]1CCCN1C)C(=O)c1cn2c3c(c(N4CCC(c5cnccn5)C4)c(F)cc3c1=O)Oc1cc3ccccc3cc1-2 (stereo partly drawn) [compound 1754]
12 | > 15 | Cc1cc(CNc2c(F)cc3c(=O)c(C(=O)NCCC4CCCN4C)cn4c3c2Oc2cc3ccccc3cc2-4)no1 (stereo not drawn) [compound 1753]
13 | > 15 | O=C(NCCN1CCCC1)c1cn2c3c(c(N4CC5CCCNC5C4)c(F)cc3c1=O)Oc1ccccc1-2 (stereo not drawn) [compound 1728]
14 | 1.95 | CN1CCCC1CCNC(=O)c1cn2c3c(c(NC4CCS(=O)(=O)C4)c(F)cc3c1=O)Oc1cc3ccccc3cc1-2 (stereo not drawn) [compound 1749]
15 | > 15 | CCOCCCNC(=O)c1cn2c3c(c(N4CCC(N)C4)c(F)cc3c1=O)Oc1cc3ccccc3cc1-2 (stereo not drawn) [compound 1697]
16 | 10 | O=C(NCCN1CCCC1)c1cn2c3c(c(N4CCN(Cc5ccoc5)CC4)c(F)cc3c1=O)Oc1cc(Cl)ccc1-2 [compound 1832]
17 | 1 | CN1CCCC1CCNC(=O)c1cn2c3c(c(NCCCn4ccnc4)c(F)cc3c1=O)Oc1cc3ccccc3cc1-2 (stereo not drawn) [compound 1670]
18 | 0.75 | CN(C)CCCCNC(=O)c1cn2c3c(c(N4CCC(N)C4)c(F)cc3c1=O)Oc1ccccc1-2 (stereo not drawn) [compound 1624]
19 | > 15 | CN1CCCC1CCNC(=O)c1cn2c3c(c(SCCc4cnccn4)c(F)cc3c1=O)Oc1ccccc1-2 (stereo not drawn) [compound 1779]
20 | 8.5 | O=C(O)c1cn2c3c(c(NCC4CCCO4)c(F)cc3c1=O)Oc1cc3ccccc3cc1-2 (stereo not drawn) [compound 1740]
21 | > 15 | CC(C)OCCNc1c(F)cc2c(=O)c(C(=O)NCCC3CCCN3C)cn3c2c1Oc1cc2ccccc2cc1-3 (stereo not drawn) [compound 1746]
22 | 10 | CN1CCCC1CCNC(=O)c1cn2c3c(c(N4CCN(C(=O)OC(C)(C)C)CC4)c(F)cc3c1=O)Oc1cc(Cl)ccc1-2 (stereo not drawn) [compound 1819]
23 | > 15 | N=C(N)NCCCCNC(=O)c1cn2c3c(c(NCCN4CCCC4)c(F)cc3c1=O)Oc1ccccc1-2 [compound 1633]
24 | > 15 | CC1(C)CC(NC(=O)c2cn3c4c(c(NCCN5CCOCC5)c(F)cc4c2=O)Oc2ccccc2-3)CC(C)(C)N1 [compound 1615]
25 | 2.5 | CN1CCCC1CCNC(=O)c1cn2c3c(c(NC[C@H]4CCCO4)c(F)cc3c1=O)Oc1cc3ccccc3cc1-2 (stereo partly drawn) [compound 1735]
26 | 3 | O=C(NCCN1CCCC1)c1cn2c3c(c(N4CCC(c5cnccn5)C4)ccc3c1=O)Oc1ccccc1-2 (stereo not drawn) [compound 1722]
27 | 6.1 | CN1CCCC1CCNC(=O)c1cn2c3c(c(N4CCC(c5cnccn5)C4)c(F)cc3c1=O)Oc1ccc(C(N)=O)cc1-2 (stereo not drawn) [compound 1773]
28 | 5.3 | N#Cc1ccc2c(c1)-n1cc(C(=O)NCCN3CCOCC3)c(=O)c3cc(F)c(N4CCC(N)C4)c(c31)O2 (stereo not drawn) [compound 1793]

Same assay, conditions: read-out: Stop Data c-Myc μM; concentration at which 50% of the DNA was arrested (arrested:full-length 1:1)

Row | IC50 [µM] | Compound
29 | 0.75 | CN(C)CCCCNc1c(F)cc2c(=O)c(C(=O)NCCCN3CCOCC3)cn3c2c1Oc1c-3ccc2ccccc12 [compound 400]
30 | 0.75 | CN1CCCC1CCNC(=O)c1cn2c3c(c(N4CCC(N5CCCC5)CC4)c(F)cc3c1=O)Oc1cc3ccccc3cc1-2 (stereo not drawn) [compound 434]
31 | 1 | CN(C)CCCCNC(=O)c1cn2c3c(c(NCCN4CCCC4)c(F)cc3c1=O)Oc1cc3ccccc3cc1-2 [compound 317]
32 | 1 | N=C(N)NCC1CCCC(CNC(=O)c2cn3c4c(c(NCCCN5CCOCC5)c(F)cc4c2=O)Oc2cc4ccccc4cc2-3)C1 (stereo not drawn) [compound 331]
33 | 4 | O=C(O)c1cn2c3c(c(NCC4CCCO4)c(F)cc3c1=O)Oc1cc3ccccc3cc1-2 (stereo not drawn) [compound 1]
34 | 1.75 | CN(C)CCCCNc1c(F)cc2c(=O)c(C(=O)NCCN3CCOCC3)cn3c2c1Oc1c-3ccc2ccccc12 [compound 141]
35 | 0.5 | CN1CCCC1CCNC(=O)c1cn2c3cc4c(=O)c5ccccc5c(=O)c4cc3oc3c(N4CCC(N)C4)c(F)cc(c1=O)c32 (stereo not drawn) [compound 489]
36 | 1.75 | COc1ccc(OC)c(CCNc2c(F)cc3c(=O)c(C(=O)NCCC4CCCN4C)cn4c3c2Oc2cc3ccccc3cc2-4)c1 (stereo not drawn) [compound 291]
37 | 0.41 | CN(C)CCCCNc1c(F)cc2c(=O)c(C(=O)NCCN3CCCC3)cn3c2c1Oc1c-3ccc2ccccc12 [compound 498]
38 | 2.5 | O=C(CCN1CCCC1)Nc1c(F)cc2c(=O)c(C(=O)NCCN3CCCC3)cn3c2c1Oc1cc2ccccc2cc1-3 [compound 90]
39 | 1.13 | CN1CCN(CCCNC(=O)c2cn3c4c(c(N5CC[C@@H](N)C5)c(F)cc4c2=O)Oc2c-3ccc3ccccc23)CC1 [compound 304]
40 | 0.75 | CC1(C)CC(NC(=O)c2cn3c4c(c(NCCN5CCCC5)ccc4c2=O)Oc2cc4ccccc4cc2-3)CC(C)(C)N1 [compound 447]
41 | 1 | N=C(N)NCCCCNC(=O)c1cn2c3c(c(NCCCN4CCOCC4)c(F)cc3c1=O)Oc1cc3ccccc3cc1-2 [compound 330]
42 | 1.75 | CN(C)CCCCNC(=O)c1cn2c3c(c(N)c(F)c(NCCCN4CCOCC4)c3c1=O)Oc1cc3ccccc3cc1-2 [compound 192]
43 | 0.18 | CN(C)CCCCNCCC(=O)N[C@@H]1CCN(c2c(F)cc3c(=O)c(C(=O)NCCCN4CCN(C)CC4)cn4c3c2Oc2cc3c(cc2-4)oc2ccccc23)C1 [compound 588]
44 | 2.5 | O=C(O)c1cn2c3c(c(NCCN4CCCC4)c(F)cc3c1=O)Oc1c-2ccc2ccccc12 [compound 3]
45 | 1.75 | CN1CCCC1CCNc1c(F)cc2c(=O)c(C(=O)NCCCn3ccnc3)cn3c2c1Oc1cc2c(cc1-3)oc1ccccc12 (stereo not drawn) [compound 159]
46 | 1.75 | CN(C)CCCNC(=O)c1cn2c3c(c(N4CCC(NC(=O)OC(C)(C)C)C4)c(F)cc3c1=O)Oc1cc3ccccc3cc1-2 (stereo not drawn) [compound 242]
47 | 1.75 | CN1CCN(CCCNC(=O)c2cn3c4c(c(NCCCN5CCOCC5)c(F)cc4c2=O)Oc2cc4c(cc2-3)oc2ccccc24)CC1 [compound 144]
48 | 2.5 | CC(C)(C)OC(=O)N[C@@H]1CCN(C(=O)c2cn3c4c(c(NCCCN5CCOCC5)c(F)cc4c2=O)Oc2cc4ccccc4cc2-3)C1 [compound 50]
